Measurements taken from ChEMBL document CHEMBL4840347, “Design, synthesis, and biological evaluation of novel somatostatin receptor subtype-2 agonists: Optimization for potency and risk mitigation of hERG and phospholipidosis” (Bioorg Med Chem, 2021).

Legend:
[1] = AUC (0 to 24 hrs) in rat at 3 mg/kg, po; format: ADME, organism-based; set-up: time < 24 hr, route oral, dose 3 mg/kg; conditions: in vivo
[2] = Tmax in rat at 3 mg/kg, po; format: ADME, organism-based; conditions: in vivo
[3] = Volume of distribution in rat at 1 mg/kg, iv; format: ADME, organism-based; conditions: in vivo, read-out: Vdss
[4] = Half life in rat at 3 mg/kg, po; format: ADME, organism-based; conditions: in vivo
[5] = AUC (0 to 24 hrs) in rat at 1 mg/kg, iv; format: ADME, organism-based; set-up: time < 24 hr, route intravenous, dose 1 mg/kg; conditions: in vivo
[6] = Half life in rat liver microsomes measured up to 60 mins in presence of NADPH by LC-MS/MS analysis; format: ADME, Microsome
[7] = Oral bioavailability in rat at 3 mg/kg; format: ADME, organism-based; conditions: in vivo
[8] = Permeability of compound by PAMPA assay; format: ADME; conditions: read-out: permeability
[9] = Cmax in rat at 3 mg/kg, po; format: ADME, organism-based; set-up: route oral, dose 3 mg/kg; conditions: in vivo
[10] = Total clearance in rat at 1 mg/kg, iv; format: ADME, organism-based; conditions: in vivo
[11] = Half life in rat at 1 mg/kg, iv; format: ADME, organism-based; conditions: in vivo
[12] = AUC (0 to 24 hrs) in rat at 10 mg/kg, po; format: ADME, organism-based; set-up: time < 24 hr, route oral, dose 10 mg/kg; conditions: in vivo
[13] = Oral bioavailability in rat at 10 mg/kg; format: ADME, organism-based; conditions: in vivo
[14] = Half life in rat at 10 mg/kg, po; format: ADME, organism-based; conditions: in vivo
[15] = Tmax in rat at 10 mg/kg, po; format: ADME, organism-based; conditions: in vivo

AUC(0-t) at 24 h [1] [ng·h/mL]	Tmax [2] [h]	Vd [3] [L/kg]	half-life [4] [h]	AUC(0-t) at 24 h [5] [ng·h/mL]	half-life [6] [h]	bioavailability [7] [%]	Papp [8] [×10⁻⁶ cm/s]	Cmax [9] [ng/mL]	clearance [10] [mL/min/kg]	half-life [11] [h]	AUC [12] [ng·h/mL]	F [13] [%]	AUC ([5]; 24 h) [ng·h/mL]	half-life [14] [h]	Tmax [15] [h]	Structure (SMILES)
271	2.3	23.2	5.6	264	> 3.33	35.5	41	32.1	60.7	6.1	–	–	–	–	–	Cc1cc(C(=O)Nc2cncc(-c3cc(Cl)cc(Cl)c3)c2N2CCC(N)CC2)n(C)n1
291	0.5	8.23	6.5	–	> 3.33	–	0.71	56.6	25.1	5.8	291	42	686	6.5	0.5	COc1cc(OC)cc(-c2cncc(-c3nc4cc(C)ccc4[nH]3)c2N2CCC(N)CC2)c1
